Drawing on BindingDB's records for PubMed 35695407 (Chinese Academy of Sciences, 2022), this text covers EC50 for one compound.

The assay has as its target T1, Programmed cell death protein 4 (Homo sapiens, UniProt Q53EL6).
T1 sequence (Q53EL6 whole entry): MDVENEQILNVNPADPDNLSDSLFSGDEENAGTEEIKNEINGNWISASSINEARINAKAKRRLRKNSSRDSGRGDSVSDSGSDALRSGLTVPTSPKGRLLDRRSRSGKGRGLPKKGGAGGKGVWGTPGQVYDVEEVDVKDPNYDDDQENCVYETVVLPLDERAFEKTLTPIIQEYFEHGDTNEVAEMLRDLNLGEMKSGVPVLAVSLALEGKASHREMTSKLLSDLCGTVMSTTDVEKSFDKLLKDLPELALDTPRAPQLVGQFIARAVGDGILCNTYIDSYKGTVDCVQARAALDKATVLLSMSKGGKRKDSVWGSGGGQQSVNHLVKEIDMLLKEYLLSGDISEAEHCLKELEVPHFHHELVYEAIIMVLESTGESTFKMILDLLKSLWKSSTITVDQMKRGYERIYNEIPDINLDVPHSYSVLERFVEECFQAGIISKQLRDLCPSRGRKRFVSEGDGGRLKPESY
Put plainly: Inhibition of PDCD4 in human HeLa cells tranfected with pCI-neo-luciferase-PDCD4 3'-UTR plasmid assessed as increase in luciferase activity by luciferase reporter assay. (Reporter assays use an easily measured gene product as a stand-in for the process of interest.)

A word on the EC50: it is the midpoint of the concentration-response curve.

With `CCOC(=O)c1nc(-c2ccc(OC)cc2)oc1C`, the half-maximal effective concentration (EC50) amounted to 2250 nM.
